Assay results: article PMC9841524, “Structure-Based Rational Design of Small α-Helical Peptides with Broad-Spectrum Activity against Multidrug-Resistant Pathogens” (Journal of Medicinal Chemistry, 2022)
Where two headings read alike, the source gives them in different places. Where no end group is shown, it is not given here.

Legend:
[1] = test system: E. coli (ATCC BAA-2452); conditions: Gram-negative, NDM-1; CLSI microdilution, CAMHB, 37 °C, 24 h; highest MIC of three independent experiments in triplicate
Procedure, shortened: (§1)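 Inoculum 10^6 CFU/mL in CAMHB against 2-fold peptide series; salt variants used 150 mM NaCl, 4.5 mM KCl, 6 mM NH4Cl, 1 mM MgCl2, 2 mM CaCl2, or 25% FBS.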

[2] = test system: S. pneumoniae (ATCC 700677); conditions: Gram-positive, multi-drug resistant (penicillin, tetracycline, erythromycin); CAMHB + 2.5% lysed horse blood, 37 °C, 24 h; highest MIC of three independent experiments in triplicate
Procedure, shortened: as §1

[3] = test system: E. coli (ATCC 25922); conditions: for MIC, E. coli (ATCC 25922), Control: MH media without salt ions or serum; for MIC, E. coli (ATCC 25922): broth microdilution (CLSI), CAMHB, 37 °C, 24 h
Procedure, shortened: as §1

[4] = test system: P. aeruginosa (ATCC BAA-1744); conditions: Gram-negative, resistant strain (marked a; imipenem resistant in Table S3); CLSI microdilution, CAMHB, 37 °C, 24 h; highest MIC of three independent experiments in triplicate
Procedure, shortened: as §1

[5] = test system: E. faecalis (ATCC 29212); conditions: Gram-positive; CLSI microdilution, CAMHB, 37 °C, 24 h; highest MIC of three independent experiments in triplicate
Procedure, shortened: as §1

[6] = test system: K. pneumonia (ATCC BAA-2470); conditions: Gram-negative, carbapenem-resistant; CLSI microdilution, CAMHB, 37 °C, 24 h; highest MIC of three independent experiments in triplicate
Procedure, shortened: as §1

[7] = test system: P. aeruginosa (ATCC 10145)
Procedure, shortened: as §1

[8] = test system: Bacillus subtilis (ATCC 6633); conditions: ATCC 6633, 24 h
Procedure, shortened: as §1

[9] = test system: MRSA (ATCC BAA-1556); conditions: for MIC, MRSA (ATCC BAA-1556), Control: MH media without salt ions or serum; for MIC, MRSA (ATCC BAA-1556), Control / MIC, MRSA (ATCC BAA-1556), MgCl2 / MIC, MRSA (ATCC BAA-1556), CaCl2 / MIC, MRSA (ATCC BAA-1556), KCl / MIC, MRSA (ATCC BAA-1556), NH4Cl / MIC, MRSA (ATCC BAA-1556), NaCl / MIC, MRSA (ATCC BAA-1556), FBS (25%): three independent experiments in triplicate; for MIC, MRSA (ATCC BAA-1556): broth microdilution (CLSI), CAMHB, 37 °C, 24 h; for MIC, MRSA (ATCC BAA-1556), MgCl2: media with 1 mM MgCl2; for MIC, MRSA (ATCC BAA-1556), CaCl2: media with 2 mM CaCl2; for MIC, MRSA (ATCC BAA-1556), KCl: media with 4.5 mM KCl; for MIC, MRSA (ATCC BAA-1556), NH4Cl: media with 6 mM NH4Cl; for MIC, MRSA (ATCC BAA-1556), NaCl: media with 150 mM NaCl; for MIC, MRSA (ATCC BAA-1556), FBS (25%): media with 25% fetal bovine serum
Procedure, shortened: as §1

[10] = test system: A. baumannii (ATCC BAA1605); conditions: Gram-negative, footnote e ciprofloxacin (MDR in Table S3); CLSI microdilution, CAMHB, 37 °C, 24 h; highest MIC of three independent experiments in triplicate
Procedure, shortened: as §1

[11] = test system: Bacillus cereus (ATCC 13061)
Procedure, shortened: as §1

[12] = test system: Klebsiella pneumonia (ATCC 13883)
Procedure, shortened: as §1

[13] = Relative hydrophobicity as RP-HPLC retention time; assay type: physicochemical; conditions: chromatographic, Phenomenex Luna C18 4 μm 150 × 4.6 mm, linear AB gradient 1% acetonitrile/min, 0.3 mL/min, A water 0.1% TFA, B acetonitrile 0.1% TFA, 25 °C
Description: The purity analysis of the peptides was conducted on a RP-HPLC system (Shimadzu; LC-20ADXR) by using a Phenomenex (Luna) analytical C18 column (4 μm, 150 × 4.6 mm). The mass of the purified peptides was determined in the positive-ion mode using Q-TOF LC/MS (Compass Hystar 4.1, Bruker, USA). The purity (>95%) and mass data of all the synthesized peptides are provided in the Supporting Information.
8. Comparative Hydrophobicity analysis
The purity of all synthesized peptides was determined using reverse phase analytical HPLC
(Shimadzu; LC-20ADXR). Below mentioned are the conditions used to conduct the purity
Column: Phenomenex (Luna), 4 um, C18, 150 × 4.6 mm
Mobile Phase: Buffer A-Water containing 0.1% TFA,
Buffer B-Acetonitrile containing 0.1% TFA
Figure S52. HPLC chromatogram of 6a.
(1 picture or pasted object on this page, not shown here)

[14] = test system: S. aureus (ATCC 29213); assay: MIC, standard microtiter dilution (CLSI); assay type: cell-based; conditions: broth microdilution (CLSI), CAMHB, 37 °C, 24 h
Procedure, shortened: as §1

[15] = three independent experiments in triplicate
[16] = 10^6 CFU/mL, highest MIC of three independent experiments in triplicate
[17] = Gram-negative, CLSI microdilution, CAMHB, 37 °C, 24 h, highest MIC of three independent experiments in triplicate

Row | Substance | MIC, E. coli (ATCC BAA-2452) [1] [µg/mL] | MIC, S. pneumoniae (ATCC 700677) [2] [µg/mL] | MIC, E. coli (ATCC 25922), FBS (25%) ([3]; ATCC 25922, 24 h) [µg/mL] | MIC, E. coli (ATCC 25922), NaCl ([3]; ATCC 25922, 24 h) [µg/mL] | MIC, E. coli (ATCC 25922), Control [3, 15] [µg/mL] | MIC, E. coli (ATCC 25922) [3, 16] [µg/mL] | MIC, E. coli (ATCC 25922) ([3]; value in parentheses (μM)) [µM] | MIC, P. aeruginosa (ATCC BAA-1744) [4] [µg/mL] | MIC, E. faecalis (ATCC 29212) [5] [µg/mL] | MIC, K. pneumonia (ATCC BAA-2470) [6] [µg/mL] | MIC, Bacillus subtilis (ATCC 6633) [8] [µg/mL] | MIC, MRSA (ATCC BAA-1556), Control [9] [µg/mL] | MIC, MRSA (ATCC BAA-1556) [9, 16] [µg/mL] | MIC, MRSA (ATCC BAA-1556), MgCl2 [9] [µg/mL] | MIC, MRSA (ATCC BAA-1556), CaCl2 [9] [µg/mL] | MIC, MRSA (ATCC BAA-1556), KCl [9] [µg/mL] | MIC, MRSA (ATCC BAA-1556), NH4Cl [9] [µg/mL] | MIC, MRSA (ATCC BAA-1556), NaCl [9] [µg/mL] | MIC, MRSA (ATCC BAA-1556), FBS (25%) [9] [µg/mL] | MIC, MRSA (ATCC BAA-1556) ([9]; value in parentheses (μM)) [µM] | also measured
1 | RWIRRWIRWWRR-NH2 [7a] | 12.5 | 25 | 50 | 25 | 6.2 | 6.2 | 3.22 | 12.5 | 12.5 | 12.5 | 6.2 | 6.2 | 6.2 | 6.2 | 6.2 | 12.5 | 6.2 | 12.5 | 25 | 3.22 | MIC, E. coli (ATCC 25922), MgCl2 ([3]; media with 1 mM MgCl2, three independent experiments in triplicate): 12.5 µg/mL; MIC, E. coli (ATCC 25922), CaCl2 ([3]; media with 2 mM CaCl2, three independent experiments in triplicate): 12.5 µg/mL; MIC, E. coli (ATCC 25922), KCl ([3]; media with 4.5 mM KCl, three independent experiments in triplicate): 12.5 µg/mL; MIC, E. coli (ATCC 25922), NH4Cl ([3]; media with 6 mM NH4Cl, three independent experiments in triplicate): 12.5 µg/mL; MIC, P. aeruginosa (ATCC 10145) [7, 17]: 12.5 µg/mL; MIC, A. baumannii (ATCC BAA1605) [10]: 12.5 µg/mL; MIC, Bacillus cereus (ATCC 13061) ([11]; Gram-positive, CLSI microdilution, CAMHB, 37 °C, 24 h, highest MIC of three independent experiments in triplicate): 12.5 µg/mL; MIC, Klebsiella pneumonia (ATCC 13883) ([12]; ATCC 13883, 24 h): 25 µg/mL; tR, RP-HPLC retention time (measure of overall hydrophobicity) [13]: 33.93 min; MIC, S. aureus (ATCC 29213) [14, 16]: 6.2 µg/mL; MIC, S. aureus (ATCC 29213) ([14]; value in parentheses (μM)): 3.22 µM
2 | RWLRRWLRWWRR-NH2 [8a] | 12.5 | 12.5 | > 50 | > 50 | 12.5 | 12.5 | 6.49 | 12.5 | 12.5 | 12.5 | 3.1 | 6.2 | 6.2 | 6.2 | 6.2 | 12.5 | 6.2 | 12.5 | 50 | 3.22 | MIC, E. coli (ATCC 25922), CaCl2 ([3]; ATCC 25922, 24 h): 25 µg/mL; MIC, E. coli (ATCC 25922), KCl ([3]; ATCC 25922, 24 h): 25 µg/mL; MIC, E. coli (ATCC 25922), MgCl2 ([3]; ATCC 25922, 24 h): 50 µg/mL; MIC, E. coli (ATCC 25922), NH4Cl ([3]; ATCC 25922, 24 h): 25 µg/mL; MIC, P. aeruginosa (ATCC 10145) ([7]; ATCC 10145, 24 h): 6.2 µg/mL; MIC, A. baumannii (ATCC BAA1605) [10]: 6.2 µg/mL; MIC, Bacillus cereus (ATCC 13061) ([11]; ATCC 13061, 24 h): 6.2 µg/mL; MIC, Klebsiella pneumonia (ATCC 13883) [12, 17]: 12.5 µg/mL; tR, RP-HPLC retention time (measure of overall hydrophobicity) [13]: 34.99 min; MIC, S. aureus (ATCC 29213) [14, 16]: 6.2 µg/mL; MIC, S. aureus (ATCC 29213) ([14]; value in parentheses (μM)): 3.22 µM
